Source: PubChem BioAssay AID2060901 (Molecular Pharmacology Branch, DTP, NCI, 2025)

Test system: 422866-222-R5-J1-PDC complex spheroids viability
Assay: Anticancer human tumor 422866-222-R5-J1-PDC patient-derived pancreatic adenocarcinoma cell line growth inhibition [RAS]
Settings: for IC50: curve of first compound; for viability, T/C: stronger effect = lower value
From the text: RAS pathway inhibitors in Combinations in Complex Spheroids
A high-throughput screen of multi-cell type tumor spheroids was designed to identify active combinations of RAS pathway inhibitors and targeted small molecules. Complex spheroids include a stromal component modeled by human endothelial cells (HUVEC) and fibroblasts modeled by human mesenchymal stem cells (MSCs). The concentration ranges selected for each drug and investigational agent were based upon clinically achievable concentrations if the clinical Cmax of the agent was known.
Compounds. The drugs and investigational agents: abemaciclib (NSC768073), cobimetinib (NSC768068), divarasib (GDC6063, NSC841802), docetaxel (NSC628503), GDC-1971 (RLY-1971, NSC841576), gemcitabine (NSC613327), inavolisib (NSC800729), ipatasertib (NSC767898), KB-0742 (NSC834161), MRTX-1133 (NSC836407), osimertinib (NSC779217), RMC-4630 (NSC839698), RMC-6236 (NSC851965), RMC-6291 (NSC852671), Ro-3306 (NSC812927), sapanisertib (NSC764658), SN-38 (NSC673596), staurosporine (NSC755774), SY5609 (NSC837396), and tovorafenib (DAY101, NSC766906), were obtained from the National Cancer Institute (NCI) Developmental Therapeutics Program Chemical Repository. The FDA-approved anticancer drug set is available from the NCI Developmental Therapeutics Program. […] The stock solutions were prepared in dimethyl sulfoxide (DMSO, Sigma-Aldrich, St. Louis, MO, cat. D2650) at 800-fold the tested concentration and stored at -70 degrees C prior to their use. All drugs and investigational agents were tested over a range starting from a high concentration at or near the clinical Cmax and decreasing in half-log increments. If the clinical Cmax for an agent had not been determined, the highest concentration tested was 10 microM.
Cell Culture. All cells were maintained in an incubator at 37 degrees C and 5% CO2 with 95% humidity. The PDC lines were cultured according to standard operating procedures established by the NCI PDMR. All PDCs were thawed and cultured in Matrigel-coated flasks prepared with a working solution of 1X Ham's F-12 nutrient mix, without supplementation (Invitrogen, Waltham, MA, cat. 11765054), 100 U/mL penicillin-streptomycin (Invitrogen, cat. 15140122), and 2.5% Matrigel (Corning Inc., Corning, NY, cat. 354248) for the first three passages. The 362531-283-R-J2-PDC and 782815-120-R-J1-PDC lines were cultured in 6C/Colon 1B media, which includes advanced DMEM/F-12 (Thermo Fisher Scientific, cat. 12634028), 10 mM HEPES (Thermo Fisher Scientific, cat. 15630080), 1X GlutaMAX supplement (Thermo Fisher Scientific, cat. 35050061), 0.1 mg/mL primocin (InvivoGen, San Diego, CA, cat. ant-pm-2), 10% defined fetal bovine serum, heat inactivated (HyClone Laboratories Inc., Logan, UT, cat. SH30070.03HI), 50% L-WRN conditioned media (ATCC, cat. CRL-3276), 1.25 mM N-Acetyl-L-cysteine (Sigma-Aldrich, cat. A9165), 10 mM nicotinamide (Sigma-Aldrich, cat. N0636), 1X B-27 supplement (Thermo Fisher Scientific, cat. 17504044), 1X N-2 supplement (Thermo Fisher Scientific, cat. 17502048), 50 ng/mL human EGF (Thermo Fisher Scientific, cat. PHG0311), and 10 microM Y-27632 dihydrochloride (Tocris Bioscience, cat. 1254). The K12877-001-R-J1-PDC line was cultured in 6I media, which includes all 6C/Colon 1B media plus 10 ng/mL human FGF-10 (PeproTech, cat. 100-26), 1 ng/mL human FGF-2 (PeproTech, cat. 100-18B), 1 µM prostaglandin E2 (Tocris Bioscience, cat. 2296), […] hydrocortisone (Sigma-Aldrich, cat. H4001), and […] bovine insulin (Sigma-Aldrich, cat. I6634). The K86415-001-R-J1-PDC line was cultured in 6D media, which includes all 6C/Colon 1B media components minus the L-WRN conditioned media. The 485176-168-R4-J1-PDC was cultured in PANC media, which includes all 6C/Colon 1B media plus 100 ng/mL human FGF-10 (PeproTech, cat. 100-26), 500 nM SB-431542 (Selleckchem, cat. S1067), and 10 nM gastrin (Tocris Bioscience, cat. 3006). […]
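Further: spheroids exposed to compounds for 7 days.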
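Wherever viability, T/C is given: 100% = DMSO vehicle control viability.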

Q: How did the IC50 (second compound 0.00316 µM) turn out when `C=CC(=O)Nc1cc(Nc2nccc(-c3cn(C)c4ccccc34)n2)c(OC)cc1N(C)CCN(C)C` + C=CC(=O)N1CCN(c2nc(OCC3CCCN3C)nc3c(F)c(-c4nc(N)cc(C)c4C(F)(F)F)c(Cl)cc23)C(C)C1 was run?
A: Its IC50 is < 3.16 nM.

Q: What about the IC50 (second compound 0.01 µM) of the same compound?
A: Its IC50 is < 3.16 nM.

Q: What about the IC50 (second compound 0.0316 µM) of the same compound?
A: Its IC50 is < 3.16 nM.

Q: And the IC50 (second compound 0.1 µM)?
A: Its IC50 is < 3.16 nM.

Q: And the IC50 (second compound 0.316 µM)?
A: Its IC50 is < 3.16 nM.

Q: And the IC50 (second compound 1 µM)?
A: Its IC50 is < 3.16 nM.

Q: And the viability, T/C (second compound 0.00316 µM, first compound 0.00316 µM)?
A: Its viability, T/C is 26.3%.

Q: And the viability, T/C (second compound 0.00316 µM, first compound 0.01 µM)?
A: Its viability, T/C is 28.2%.

Q: And the viability, T/C (second compound 0.00316 µM, first compound 0.0316 µM)?
A: Its viability, T/C is 29%.

Q: What about the viability, T/C (second compound 0.00316 µM, first compound 0.1 µM) of the same compound?
A: Its viability, T/C is 28%.

Q: What about the viability, T/C (second compound 0.00316 µM, first compound 0.316 µM) of the same compound?
A: The viability, T/C was 18.5%.

Q: And the viability, T/C (second compound 0.00316 µM, first compound 1 µM)?
A: Its viability, T/C is 12.4%.

Q: And the viability, T/C (second compound 0.01 µM, first compound 0.00316 µM)?
A: The viability, T/C was 34.1%.

Q: What about the viability, T/C (second compound 0.01 µM, first compound 0.01 µM) of the same compound?
A: Its viability, T/C is 21.1%.

Q: What about the viability, T/C (second compound 0.01 µM, first compound 0.0316 µM) of the same compound?
A: The viability, T/C was 20.5%.

Q: What about the viability, T/C (second compound 0.01 µM, first compound 0.1 µM) of the same compound?
A: The viability, T/C was 19.8%.

Q: What about the viability, T/C (second compound 0.01 µM, first compound 0.316 µM) of the same compound?
A: The viability, T/C was 17.3%.

Q: And the viability, T/C (second compound 0.01 µM, first compound 1 µM)?
A: Its viability, T/C is 12.3%.

Q: What about the viability, T/C (second compound 0.0316 µM, first compound 0.00316 µM) of the same compound?
A: The viability, T/C was 33.4%.

Q: And the viability, T/C (second compound 0.0316 µM, first compound 0.01 µM)?
A: Its viability, T/C is 26.3%.

Q: And the viability, T/C (second compound 0.0316 µM, first compound 0.0316 µM)?
A: The viability, T/C was 21.5%.

Q: And the viability, T/C (second compound 0.0316 µM, first compound 0.1 µM)?
A: The viability, T/C was 16.5%.

Q: And the viability, T/C (second compound 0.0316 µM, first compound 0.316 µM)?
A: The viability, T/C was 17%.

Q: What about the viability, T/C (second compound 0.0316 µM, first compound 1 µM) of the same compound?
A: The viability, T/C was 12.2%.

Q: What about the viability, T/C (second compound 0.1 µM, first compound 0.00316 µM) of the same compound?
A: The viability, T/C was 22.8%.

Q: What about the viability, T/C (second compound 0.1 µM, first compound 0.01 µM) of the same compound?
A: The viability, T/C was 21.9%.

Q: And the viability, T/C (second compound 0.1 µM, first compound 0.0316 µM)?
A: The viability, T/C was 17.3%.

Q: And the viability, T/C (second compound 0.1 µM, first compound 0.1 µM)?
A: The viability, T/C was 17.6%.

Q: And the viability, T/C (second compound 0.1 µM, first compound 0.316 µM)?
A: The viability, T/C was 16.6%.

Q: What about the viability, T/C (second compound 0.1 µM, first compound 1 µM) of the same compound?
A: Its viability, T/C is 11.9%.

Q: And the viability, T/C (second compound 0.316 µM, first compound 0.00316 µM)?
A: Its viability, T/C is 19.7%.

Q: What about the viability, T/C (second compound 0.316 µM, first compound 0.01 µM) of the same compound?
A: Its viability, T/C is 21.4%.

Q: What about the viability, T/C (second compound 0.316 µM, first compound 0.0316 µM) of the same compound?
A: The viability, T/C was 20%.

Q: And the viability, T/C (second compound 0.316 µM, first compound 0.1 µM)?
A: The viability, T/C was 21.8%.

Q: What about the viability, T/C (second compound 0.316 µM, first compound 0.316 µM) of the same compound?
A: Its viability, T/C is 18.1%.

Q: What about the viability, T/C (second compound 0.316 µM, first compound 1 µM) of the same compound?
A: The viability, T/C was 14.2%.

Q: What about the viability, T/C (second compound 1 µM, first compound 0.00316 µM) of the same compound?
A: The viability, T/C was 20.5%.

Q: What about the viability, T/C (second compound 1 µM, first compound 0.01 µM) of the same compound?
A: Its viability, T/C is 20.8%.

Q: What about the viability, T/C (second compound 1 µM, first compound 0.0316 µM) of the same compound?
A: Its viability, T/C is 22.7%.

Q: What about the viability, T/C (second compound 1 µM, first compound 0.1 µM) of the same compound?
A: Its viability, T/C is 20.9%.

Q: And the viability, T/C (second compound 1 µM, first compound 0.316 µM)?
A: Its viability, T/C is 18.6%.

Q: And the viability, T/C (second compound 1 µM, first compound 1 µM)?
A: The viability, T/C was 12.4%.
